Some test systems named below: 786-0; A498; CAKI-1; CCRF-CEM; HCC 2998; HCT-116; HCT-15; HOP-62; HT-29; LOX IMVI; NCI-H522; SK-MEL-28; SK-MEL-2; SN12C; SR; SW-620; UACC-62; UO-31.
Holding throughout (experiment): NCI-60 cell line screen, 48 h

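Briefly, cells in 96-well plates were exposed to five compound concentrations for 48 h, and endpoints were estimated by linear interpolation. The concentration for 50% growth inhibition is given as GI50.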 Activity calls are given as the source filed them. No stated cut-off is given here; in the data, active = GI50 up to about 1.1 µM and inactive = higher. Bounds are passed on as bounds.

For the molecule `CCOC(=O)CC(NC(=O)c1nc[nH]c1[N+](=O)[O-])C(=O)OCC` (stereo not drawn), the GI50 with 786-0 is 52 µM (inactive); with A498 it was 61.7 µM (inactive); in the experiment on CAKI-1 it was 47 µM (inactive); in the experiment on CCRF-CEM, 37.4 µM (inactive); in the experiment on HCC 2998, 30.5 µM (inactive); with HCT-116, 43.4 µM (inactive). Also, the GI50 with HCT-15 is 78.5 µM; in the experiment with HOP-62, 46.7 µM (inactive); in the experiment with HT-29, 40.4 µM (inactive); with LOX IMVI, 60.1 µM (inactive); in the experiment on NCI-H522 it was 48.9 µM (inactive); in the experiment on SK-MEL-28 it was > 100 µM (inactive). Besides, the GI50 in the experiment on SK-MEL-2 is 92.7 µM (inactive); with SN12C, 42.5 µM (inactive); in the experiment on SR, 44.3 µM (inactive); in the experiment with SW-620, 37.2 µM (inactive); in the experiment on UACC-62 it was 66.1 µM (inactive); with UO-31 it was 77.6 µM (inactive).
Turning to `CC1=C(SC#N)S(=O)(=O)N(c2ccccc2)C(C)=C1SC#N`, the GI50 is 49.4 µM (inactive) with 786-0; 22.6 µM (inactive) in the experiment with A498; 45.2 µM (inactive) in the experiment with CAKI-1; 17.5 µM (inactive) with CCRF-CEM; > 100 µM (inactive) with HCC 2998; 3.27 µM (inactive) in the experiment on HCT-116. Further, the GI50 in the experiment on HCT-15 was 46 µM; with HOP-62 it was > 10 µM (inactive); with HT-29 it was > 100 µM (inactive); in the experiment on LOX IMVI, 12.9 µM (inactive); in the experiment with NCI-H522, 18 µM (inactive); in the experiment with SK-MEL-28, 61.9 µM (inactive). For the same molecule, the GI50 was 26.7 µM (inactive) with SK-MEL-2; 56.6 µM (inactive) with SN12C; 24.4 µM (inactive) with SR; 41.8 µM (inactive) in the experiment on SW-620; 30.1 µM (inactive) with UACC-62; 24.4 µM (inactive) in the experiment with UO-31.
As for `CCOC(=O)C1=C(Nc2ccccc2)SC/C1=N\NC(=O)Cc1ccccc1`, the GI50 in the experiment with 786-0, with A498, with CAKI-1, in the experiment with CCRF-CEM, in the experiment on HCC 2998 and in the experiment on HCT-116 was > 100 µM (inactive) each time. Further, the GI50 in the experiment on HCT-15 is above 100 µM; in the experiment with HOP-62 it was > 100 µM (inactive); in the experiment on HT-29 it was > 100 µM (inactive); in the experiment with LOX IMVI, > 100 µM (inactive); in the experiment on NCI-H522, > 100 µM (inactive); in the experiment with SK-MEL-28, > 100 µM (inactive). Moreover, the GI50 in the experiment with SK-MEL-2, in the experiment with SN12C, in the experiment with SR, in the experiment with SW-620, in the experiment with UACC-62 and in the experiment on UO-31 was > 100 µM (inactive) in each case.
In the case of `CCCCCCCCCCCC(=O)OCC1OC(OC)C(NC(=O)N(CCCl)N=O)C(O)C1O` (stereo not drawn), the GI50 with 786-0 was 0.621 µM (active); with A498, 18.7 µM (inactive); with CAKI-1 it was > 100 µM (inactive); in the experiment on CCRF-CEM it was 0.516 µM (active); in the experiment on HCC 2998, 14.4 µM (inactive); with HCT-116 it was 13.2 µM (inactive). Further, the GI50 in the experiment on HCT-15 was 27.2 µM; in the experiment with HOP-62, 18.7 µM (inactive); with HT-29, 16.9 µM (inactive); in the experiment with LOX IMVI it was 6.27 µM (inactive); with NCI-H522, 10.3 µM (inactive); in the experiment on SK-MEL-28 it was 15.8 µM (inactive). The GI50 was 26.3 µM (inactive) in the experiment with SK-MEL-2; 11.6 µM (inactive) with SN12C; 2.79 µM (inactive) with SR; 4.27 µM (inactive) in the experiment on SW-620; 1.33 µM (inactive) in the experiment on UACC-62; 16.7 µM (inactive) with UO-31.
Take `COc1cc2c(cc1OC)C1(c3ccccc3)ON=C(c3ccccc3)N1CS2` (stereo not drawn): the GI50 was > 100 µM (inactive) in the experiment with 786-0; > 100 µM (inactive) with A498; > 100 µM (inactive) in the experiment on CAKI-1; 39.3 µM (inactive) in the experiment with CCRF-CEM; > 100 µM (inactive) in the experiment with HCC 2998; 28.7 µM (inactive) with HCT-116. The GI50 with HCT-15 is above 100 µM; with HOP-62 it was > 100 µM (inactive); with HT-29, 55.2 µM (inactive); in the experiment on LOX IMVI, > 100 µM (inactive); with NCI-H522, > 100 µM (inactive); with SK-MEL-28 it was > 100 µM (inactive). The GI50 was > 100 µM (inactive) in the experiment on SK-MEL-2; > 100 µM (inactive) in the experiment with SN12C; 23.6 µM (inactive) in the experiment with SR; > 100 µM (inactive) in the experiment with SW-620; 45.8 µM (inactive) with UACC-62; > 100 µM (inactive) in the experiment on UO-31.
For the molecule `CCOC(=O)NC(=O)c1cn(CC(=O)NCC(=O)NCC(=O)NCCCN2CCN(CCCNC(=O)CNC(=O)CNC(=O)Cn3cc(C(=O)NC(=O)OCC)c(=O)[nH]c3=O)CC2)c(=O)[nH]c1=O`, the GI50 in the experiment on 786-0, in the experiment with A498, with CAKI-1, with CCRF-CEM, in the experiment on HCC 2998 and in the experiment with HCT-116 was > 100 µM (inactive) throughout. The GI50 in the experiment with HCT-15 is above 100 µM; in the experiment with HOP-62 it was > 100 µM (inactive); in the experiment on HT-29 it was > 100 µM (inactive); in the experiment with LOX IMVI, > 100 µM (inactive); with NCI-H522 it was > 100 µM (inactive); in the experiment with SK-MEL-28, > 100 µM (inactive). Besides, the GI50 with SK-MEL-2, in the experiment with SN12C, in the experiment with SR, in the experiment on SW-620, in the experiment with UACC-62 and with UO-31 was > 100 µM (inactive) throughout.
As for `CCCCCCCCCCCCC(CC)CCCCC(=O)O` (stereo not drawn), the GI50 in the experiment with 786-0 is 31.8 µM (inactive); with A498 it was > 100 µM (inactive); in the experiment on CAKI-1 it was > 100 µM (inactive); with CCRF-CEM it was 22.6 µM (inactive); with HCC 2998, > 100 µM (inactive); with HCT-116, > 53.1 µM (inactive). Also, the GI50 in the experiment with HCT-15 was above 100 µM; in the experiment on HOP-62 it was > 100 µM (inactive); with HT-29, > 65.6 µM (inactive); in the experiment with LOX IMVI, > 65.5 µM (inactive); in the experiment on NCI-H522 it was > 100 µM (inactive); in the experiment with SK-MEL-28 it was > 100 µM (inactive). Also, the GI50 in the experiment with SK-MEL-2 is > 100 µM (inactive); in the experiment on SN12C, > 83 µM (inactive); in the experiment on SR, > 53.2 µM (inactive); in the experiment with SW-620 it was > 61.2 µM (inactive); with UACC-62, > 100 µM (inactive); in the experiment on UO-31, > 100 µM (inactive).
Take `COc1cc2c(c(OC)c1OC)-c1ccc(SC)c(=O)cc1[C@@H](NCc1cccc(C#N)c1)CC2`: the GI50 with 786-0 was 0.0332 µM (active); in the experiment with A498, 0.0161 µM (active); with CAKI-1, 0.0075 µM (active); in the experiment with CCRF-CEM, 0.0229 µM (active); in the experiment on HCC 2998 it was 0.0198 µM (active); in the experiment on HCT-116, 0.0173 µM (active). For the same molecule, the GI50 in the experiment on HCT-15 was 0.0239 µM; with HOP-62, 0.0334 µM (active); in the experiment on HT-29 it was 0.0154 µM (active); in the experiment on LOX IMVI, 0.0184 µM (active); with NCI-H522 it was 0.0142 µM (active); with SK-MEL-28, 0.0221 µM (active). The GI50 in the experiment on SK-MEL-2 was 0.0304 µM (active); in the experiment on SN12C, 0.0313 µM (active); in the experiment on SR, 0.00414 µM (active); in the experiment on SW-620 it was 0.0132 µM (active); with UACC-62 it was 0.00668 µM (active); in the experiment on UO-31, 0.308 µM (active).
For the molecule `COc1ccc(CNc2cc(OC)c(OC)c(OC)c2)cc1`, the GI50 in the experiment on 786-0 is 12.2 µM (inactive); in the experiment on A498, 9.08 µM (inactive); with CAKI-1, 4.36 µM (inactive); in the experiment with CCRF-CEM, 4.48 µM (inactive); with HCC 2998, 6.32 µM (inactive); in the experiment on HCT-116, 3.37 µM (inactive). Moreover, the GI50 is 3.52 µM with HCT-15; 5.57 µM (inactive) in the experiment with HOP-62; 3.66 µM (inactive) in the experiment on HT-29; 5.94 µM (inactive) in the experiment on LOX IMVI; 3.12 µM (inactive) in the experiment on NCI-H522; 2.94 µM (inactive) in the experiment with SK-MEL-28. In addition, the GI50 is 2.72 µM (inactive) with SK-MEL-2; 7.71 µM (inactive) in the experiment on SN12C; 3.25 µM (inactive) in the experiment with SR; 3.31 µM (inactive) in the experiment with SW-620; 3.32 µM (inactive) in the experiment on UACC-62; 10.4 µM (inactive) in the experiment on UO-31.
As to `COc1ccc(C(=C[N+](=O)[O-])c2ccc(OC)cc2)cc1`, the GI50 in the experiment on 786-0 was 20.8 µM (inactive); with A498 it was 8.2 µM (inactive); in the experiment with CAKI-1, 11.6 µM (inactive); with CCRF-CEM it was 10.1 µM (inactive); with HCC 2998 it was 11.4 µM (inactive); with HCT-116, 8.05 µM (inactive). Besides, the GI50 in the experiment on HCT-15 is 8.05 µM; with HOP-62 it was 13.3 µM (inactive); in the experiment with HT-29 it was 4.52 µM (inactive); in the experiment with LOX IMVI, 9.44 µM (inactive); with NCI-H522, 4.45 µM (inactive); with SK-MEL-28, 16.2 µM (inactive). The GI50 with SK-MEL-2 is 6.14 µM (inactive); with SN12C, 24 µM (inactive); with SR, 4.38 µM (inactive); in the experiment with SW-620, 4.02 µM (inactive); in the experiment on UACC-62, 9.55 µM (inactive); with UO-31, 17.7 µM (inactive).
With `O=C(Nc1ccc(Sc2ccc(/N=N/c3c(O)c(S(=O)(=O)O)cc4cc(S(=O)(=O)O)ccc34)cc2)cc1)c1ccc(/N=N/c2c(O)ccc3c(S(=O)(=O)O)cc(S(=O)(=O)O)cc23)cc1`, the GI50 is 37.6 µM (inactive) in the experiment with 786-0; 26 µM (inactive) in the experiment with A498; 43.8 µM (inactive) in the experiment with CAKI-1; 24.7 µM (inactive) with CCRF-CEM; > 100 µM (inactive) in the experiment on HCC 2998; 49.3 µM (inactive) in the experiment on HCT-116. The GI50 with HCT-15 was 27.5 µM; in the experiment on HOP-62 it was 87.3 µM (inactive); in the experiment on HT-29 it was 42.1 µM (inactive); in the experiment with LOX IMVI it was 15.5 µM (inactive); in the experiment with NCI-H522, 13.4 µM (inactive); in the experiment with SK-MEL-28, 48.1 µM (inactive). The GI50 is 27.9 µM (inactive) in the experiment with SK-MEL-2; 42.2 µM (inactive) in the experiment with SN12C; 21.6 µM (inactive) in the experiment with SR; 38.5 µM (inactive) with SW-620; 16.9 µM (inactive) in the experiment with UACC-62; 41.2 µM (inactive) in the experiment with UO-31.

These data come from ChEMBL document CHEMBL1201862, “PubChem BioAssay data set” (2004).
